Assay results as given in US20230059009A1, “INHIBITORS OF LIN28 AND METHODS OF USE THEREOF” (The Regents of the University of California, priority 2019, published 2023).
Values belong to the compound of their own block, whether it stands above or below them.

Assays:
H460 = test: Cell viability, MTT assay, H460; type: cell-based
Description: (§1) To measure cell viability, cell titer glow (CTG, Promega CellTiter-Glo 2.0 Assay) and MTT assays (SigmaAldrich, Cell Proliferation Kit I) were performed. Briefly, cells were serum starved overnight prior to seeding in 96-well plates. Following 24 h incubation, cells were treated with increasing concentrations of JGJ compounds for 96 hr. At assay read-out, CellTiter-Glo reagent was added and luminescence was measured after 10-minutes incubation at room temperature. For the MTT assay, MTT labeling reagent was added and incubated for 4 h. Subsequently, medium was removed and 50 μL DMSO was added to solubilize the crystals, and absorbance was measured at 570 nm. Cell viability was calculated as (Sample-Background)/(Control-Background). Current standard of care drugs, Enzalutamide, Palbociclib and Cetuximab were used as comparative controls.

H23 = test: Cell viability, MTT assay, H23; type: cell-based
Description: as §1

H1975 = test: Cell viability, MTT assay, H1975; type: cell-based
Description: as §1, with “(Sample-Background)/(Control-Background).” for “(Sample-Background)/(Control-Background). Current standard of care drugs, Enzalutamide, Palbociclib and Cetuximab were used as comparative controls.”

HCT-116 = test: Cell viability, CTG, HCT-116; type: cell-based; conditions: HCT-116 (Colon)
Description: as §1

CAPAN-1 = test: Cell viability, CTG, CAPAN-1; type: cell-based; conditions: CAPAN-1 (Pancreatic)
Description: as §1

[1] = Microsomal stability, CD-1 Mouse; type: in vitro ADME; conditions: for CLint scaled at 30 uM / half-life at 30 uM: microsomes; for half-life at 30 uM: read-out: Microsomal stability T½
BT-549 = test: Cell viability, CTG, BT-549; type: cell-based; conditions: BT-549 (Breast)
Description: as §1

SW480 [2] = test: Cell viability, CTG, SW480; type: cell-based; conditions: SW480 (Colon)
Description: as §1, with “(Sample-Background)/(Control-Background).” for “(Sample-Background)/(Control-Background). Current standard of care drugs, Enzalutamide, Palbociclib and Cetuximab were used as comparative controls.”

ASPC-1 = test: Cell viability, CTG, ASPC-1; type: cell-based
Description: as §1

MCF7 = test: Cell viability, MTT assay, MCF7; type: cell-based; conditions: MCF7 (Breast)
Description: as §1

H1568 = test: Cell viability, MTT assay, H1568; type: cell-based
Description: as §1

SW620 = test: Cell viability, MTT assay, SW620; type: cell-based
Description: as §1

A549 = test: Cell viability, MTT assay, A549; type: cell-based; conditions: A549 (Lung)
Description: as §1, with “(Sample-Background)/(Control-Background).” for “(Sample-Background)/(Control-Background). Current standard of care drugs, Enzalutamide, Palbociclib and Cetuximab were used as comparative controls.”

SW480 [3] = test: Cell viability, MTT assay, SW480; type: cell-based; conditions: SW480 (Colon)
Description: as §1

LNCaP = test: Cell viability, MTT assay, LNCaP; type: cell-based; conditions: LNCaP (Prostate)
Description: as §1, with “(Sample-Background)/(Control-Background).” for “(Sample-Background)/(Control-Background). Current standard of care drugs, Enzalutamide, Palbociclib and Cetuximab were used as comparative controls.”

MDA-MB231 [4] = test: Cell viability, MTT assay, MDA-MB231; type: cell-based
Description: as §1

22RV1 = test: Cell viability, MTT assay, 22RV1; type: cell-based; conditions: 22RV1 (Prostate), 96 hr
Description: as §1, with “(Sample-Background)/(Control-Background).” for “(Sample-Background)/(Control-Background). Current standard of care drugs, Enzalutamide, Palbociclib and Cetuximab were used as comparative controls.”

CYP 2C9 = CYP 2C9 (Homo sapiens, UniProt P11712); test: CYP inhibition 2C9; type: in vitro ADME; parameters: unit not given here; conditions: Conc. 30 uM
CYP 2D6 = CYP 2D6 (Homo sapiens, UniProt P10635); test: CYP inhibition 2D6; type: in vitro ADME; parameters: unit not given here; conditions: Conc. 30 uM
CYP 2C8 = biological target: T1, CYP 2C8 (Homo sapiens, UniProt P10632); test: CYP inhibition 2C8; type: in vitro ADME; parameters: unit not given here; conditions: Conc. 30 uM
T1 sequence (P10632 1-490): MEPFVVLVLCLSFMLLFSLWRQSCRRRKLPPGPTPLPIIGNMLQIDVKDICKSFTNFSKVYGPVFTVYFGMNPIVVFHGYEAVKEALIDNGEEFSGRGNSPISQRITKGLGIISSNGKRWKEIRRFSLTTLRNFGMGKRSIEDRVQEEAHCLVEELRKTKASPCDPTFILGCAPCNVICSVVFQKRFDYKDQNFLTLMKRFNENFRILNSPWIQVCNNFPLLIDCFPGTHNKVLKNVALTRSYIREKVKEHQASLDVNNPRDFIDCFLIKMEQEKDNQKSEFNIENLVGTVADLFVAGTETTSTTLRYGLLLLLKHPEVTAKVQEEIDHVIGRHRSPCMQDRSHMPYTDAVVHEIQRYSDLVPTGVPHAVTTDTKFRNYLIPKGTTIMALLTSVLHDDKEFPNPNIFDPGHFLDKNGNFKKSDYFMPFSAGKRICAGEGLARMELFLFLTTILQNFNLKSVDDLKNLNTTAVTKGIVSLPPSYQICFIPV

Caco2 permeability = type: in vitro ADME; conditions: human, Caco-2, Conc. 30 uM; for recovery at 30 uM: read-out: Caco2 Mean A-B % Recovery
DU145 = test: Cell viability, MTT assay, DU145; type: cell-based; conditions: Homo sapiens, DU-145, DU145 (Prostate)
Description: as §1

MDA-MB231 [5] = test: Cell viability, CTG, MDA-MB231; type: cell-based; conditions: Homo sapiens, MDA-MB-231, MDA-MB231 (Breast)
Description: as §1

CYP 2C19 = CYP 2C19 (Homo sapiens, UniProt P33261); test: CYP inhibition 2C19; type: in vitro ADME; parameters: unit not given here; conditions: Conc. 30 uM
[6] = Microsomal stability, Human; type: in vitro ADME; conditions: Conc. 30 uM; for CLint scaled at 30 uM / half-life at 30 uM: microsomes; for half-life at 30 uM: read-out: Microsomal stability T½
[7] = Homo sapiens, NCI-H460, H460 (Lung)
[8] = Homo sapiens, NCI-H23, H23 (Lung)
[9] = Homo sapiens, NCI-H1975, H1975 (Lung)
[10] = Homo sapiens, ASPC1, ASPC-1 (Pancreatic)
[11] = Homo sapiens, SW-620, SW620 (Colon)
[12] = Homo sapiens, MDA-MB-231, MDA-MB231 (Breast)

Chain of CYP 2C19 (P33261 whole entry): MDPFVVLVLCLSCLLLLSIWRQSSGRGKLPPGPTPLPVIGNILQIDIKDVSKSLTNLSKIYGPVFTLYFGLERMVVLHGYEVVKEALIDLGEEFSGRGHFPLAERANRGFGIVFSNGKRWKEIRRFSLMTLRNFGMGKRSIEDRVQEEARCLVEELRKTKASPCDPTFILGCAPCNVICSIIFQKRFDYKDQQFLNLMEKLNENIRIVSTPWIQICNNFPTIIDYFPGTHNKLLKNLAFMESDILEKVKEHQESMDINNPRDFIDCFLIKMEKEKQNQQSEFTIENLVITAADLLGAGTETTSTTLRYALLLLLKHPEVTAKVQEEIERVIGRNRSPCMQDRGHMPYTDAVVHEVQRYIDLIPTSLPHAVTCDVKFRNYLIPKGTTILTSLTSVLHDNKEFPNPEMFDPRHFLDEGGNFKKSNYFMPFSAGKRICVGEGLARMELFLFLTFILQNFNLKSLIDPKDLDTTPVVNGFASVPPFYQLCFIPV
Chain of CYP 2D6 (P10635 whole entry): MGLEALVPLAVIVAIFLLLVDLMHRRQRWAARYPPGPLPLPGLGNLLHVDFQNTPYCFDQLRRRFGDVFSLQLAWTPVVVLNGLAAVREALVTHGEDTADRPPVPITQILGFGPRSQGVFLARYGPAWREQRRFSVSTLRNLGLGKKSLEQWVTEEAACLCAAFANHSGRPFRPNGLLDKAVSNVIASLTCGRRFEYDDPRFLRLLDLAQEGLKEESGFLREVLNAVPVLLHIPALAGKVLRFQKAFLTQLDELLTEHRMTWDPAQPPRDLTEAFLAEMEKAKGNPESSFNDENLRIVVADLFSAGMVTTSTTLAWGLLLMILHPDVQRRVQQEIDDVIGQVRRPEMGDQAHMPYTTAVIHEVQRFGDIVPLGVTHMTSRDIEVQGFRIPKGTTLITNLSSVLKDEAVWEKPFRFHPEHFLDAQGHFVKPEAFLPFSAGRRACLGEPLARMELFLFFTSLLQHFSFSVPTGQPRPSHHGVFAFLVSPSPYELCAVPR
Chain of CYP 2C9 (P11712 whole entry): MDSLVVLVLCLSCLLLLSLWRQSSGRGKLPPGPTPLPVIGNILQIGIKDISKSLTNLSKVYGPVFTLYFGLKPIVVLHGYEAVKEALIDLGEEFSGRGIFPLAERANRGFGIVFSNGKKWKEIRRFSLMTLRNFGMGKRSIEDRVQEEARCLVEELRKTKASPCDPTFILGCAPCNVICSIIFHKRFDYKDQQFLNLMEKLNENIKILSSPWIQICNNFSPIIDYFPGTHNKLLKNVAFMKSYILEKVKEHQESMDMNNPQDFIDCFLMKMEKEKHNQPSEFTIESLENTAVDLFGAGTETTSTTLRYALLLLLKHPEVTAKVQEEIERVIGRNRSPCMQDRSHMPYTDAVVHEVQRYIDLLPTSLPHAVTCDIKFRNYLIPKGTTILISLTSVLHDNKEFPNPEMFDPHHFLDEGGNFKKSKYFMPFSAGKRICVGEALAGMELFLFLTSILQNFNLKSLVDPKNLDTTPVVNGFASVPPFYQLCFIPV

SMILES: CC(=O)N(C)c1cccc(-c2ccc3nnc(C)n3n2)c1 [LN1632]
IC50 (H460; H460 (Lung)): 172 µM
IC50 (H23; H23 (Lung)): 167 µM
IC50 (H1975; H1975 (Lung)): 91 µM
IC50 (HCT-116): 158 µM
IC50 (CAPAN-1): 82 µM
Microsomal stability % Remaining at T30 ([1]; Conc. 100 uM): T30 = 90.2%
Microsomal stability CLint ([1]; Conc. 100 uM): kg) = 27 mL/min/kg
Microsomal stability T½ ([1]; Conc. 100 uM): T½ = 202 min
IC50 (BT-549): 151 µM
IC50 (SW480 [2]): 168 µM
IC50 (ASPC-1; ASPC-1 (Pancreatic)): 111 µM
IC50 (MCF7): 144 µM
IC50 (H1568; H1568 (Lung)): 128 µM
IC50 (SW620; SW620 (Colon)): 161 µM
IC50 (A549): 151 µM
IC50 (SW480 [3]): 155 µM
IC50 (LNCaP): 110 µM
IC50 (MDA-MB231 [4]; MDA-MB231 (Breast)): 136 µM
IC50 (22RV1): 236 µM

CYP inhibition 2C9 (CYP 2C9): 14.27
CYP inhibition 2D6 (CYP 2D6): 19.38
CYP inhibition 2C8 (CYP 2C8): 17.82
IC50 (H460; [7]): 594 µM
Papp A→B at 30 uM (Caco2 permeability): 24.1 ×10⁻⁶ cm/s
Papp B→A at 30 uM (Caco2 permeability): 21.1 ×10⁻⁶ cm/s
efflux ratio at 30 uM (Caco2 permeability): 0.874
recovery at 30 uM (Caco2 permeability): 67.3%
IC50 (H1975; [9]): 51 µM
IC50 (HCT-116; Homo sapiens): 148 µM
IC50 (DU145): 30 µM
Microsomal stability % Remaining at T30 ([1]; Conc. 30 uM): T30 = 2.3%
CLint scaled at 30 uM ([1]; Conc. 30 uM): 988 mL/min/kg
half-life at 30 uM ([1]; Conc. 30 uM): 5.52 min
IC50 (MDA-MB231 [5]): 75 µM
IC50 (BT-549; Homo sapiens): 48 µM
IC50 (SW480 [2]; Homo sapiens): 110 µM
IC50 (ASPC-1; [10]): 157 µM
CYP inhibition 2C19 (CYP 2C19): 49.8
IC50 (MCF7; Homo sapiens): 59 µM
IC50 (SW620; [11]): 62 µM
IC50 (A549; Homo sapiens): 93 µM
Microsomal stability % Remaining at T30 [6]: T30 = 6.9%
CLint scaled at 30 uM [6]: 161 mL/min/kg
half-life at 30 uM [6]: 7.76 min
IC50 (SW480 [3]; Homo sapiens): 53 µM
IC50 (LNCaP; Homo sapiens): 83 µM
IC50 (MDA-MB231 [4]; [12]): 145 µM
IC50 (22RV1; Homo sapiens): 209 µM
SMILES: Cc1cnc2ccc(-c3cccc(F)c3)nn12 [JGJ015, 6-(3-Fluorophenyl)-3-methylimidazo[1,2-b]pyridazine]
IC50 (H23; [8]): 62 µM
IC50 (CAPAN-1; Homo sapiens): 137 µM

CYP inhibition 2C9 (CYP 2C9): 24.65
CYP inhibition 2D6 (CYP 2D6): 54.08
CYP inhibition 2C8 (CYP 2C8): 19.11
IC50 (H460; [7]): 512 µM
Papp A→B at 30 uM (Caco2 permeability): 36.2 ×10⁻⁶ cm/s
Papp B→A at 30 uM (Caco2 permeability): 30 ×10⁻⁶ cm/s
efflux ratio at 30 uM (Caco2 permeability): 0.829
recovery at 30 uM (Caco2 permeability): 87%
IC50 (H1975; [9]): 31 µM
IC50 (HCT-116; Homo sapiens): 148 µM
IC50 (DU145): 5 µM
Microsomal stability % Remaining at T30 ([1]; Conc. 30 uM): T30 = 37.6%
CLint scaled at 30 uM ([1]; Conc. 30 uM): 257 mL/min/kg
half-life at 30 uM ([1]; Conc. 30 uM): 21.2 min
IC50 (MDA-MB231 [5]): 43 µM
IC50 (BT-549; Homo sapiens): 75 µM
IC50 (SW480 [2]; Homo sapiens): 68 µM
IC50 (ASPC-1; [10]): 188 µM
CYP inhibition 2C19 (CYP 2C19): 37.08
IC50 (MCF7; Homo sapiens): 45 µM
IC50 (H1568; NCI-H1568, H1568 (Lung)): 47 µM
IC50 (SW620; [11]): 64 µM
IC50 (A549; Homo sapiens): 97 µM
Microsomal stability % Remaining at T30 [6]: T30 = 72.8%
CLint scaled at 30 uM [6]: 19 mL/min/kg
half-life at 30 uM [6]: 65.6 min
IC50 (SW480 [3]; Homo sapiens): 64 µM
IC50 (LNCaP; Homo sapiens): 54 µM
IC50 (MDA-MB231 [4]; [12]): 39 µM
IC50 (22RV1; Homo sapiens): 97 µM
SMILES: CC(=O)Nc1cccc(-c2ccc3ncc(C)n3n2)c1 [JGJ007, N-(3-(3-Methylimidazo[1,2-b]pyridazin-6-yl)phenyl)acetamide]
IC50 (H23; [8]): 95 µM
IC50 (CAPAN-1; Homo sapiens): 91 µM
